From patent US9206156B2, “Substituted indole derivatives” (GRÜNENTHAL GMBH, priority 2008, dated 2015) come the findings set out here.

Assay [1] has as its target T1, ORL1 receptor (Homo sapiens, UniProt P41146).
T1 construct: expressed in transfected cells; host or cells: CHO (recombinant CHO-ORL1 cells), membranes
As to the kind of experiment: ORL1 receptor binding assay with 3H-nociceptin/orphanin FQ (WGA-SPA beads). To be noted: c=1 μM test substance; 0.5 nM 3H-nociceptin/orphanin FQ; membranes of recombinant CHO-ORL1 cells. Put shortly: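 Affinity given as nanomolar Ki or as % inhibition at c=1 μM. Membranes of CHO cells expressing recombinant ORL1 (20 μg protein) were incubated one hour at room temperature with 0.5 nM 3H-nociceptin/orphanin FQ in Hepes 50 mM, pH 7.4, plus MgCl2 and EDTA; bound ligand detected by SPA bead scintillation counting.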

Assay [2] has as its target T2, human μ-opiate receptor (Homo sapiens, UniProt P35372).
T2 construct: purchased NEN, Zaventem, Belgium RB-HOM; host or cells: CHO-K1 cells (membrane preparation)
As to the kind of experiment: μ-opiate receptor binding assay with [3H] naloxone (WGA-SPA beads). The note with it: 1 μmol/l test substance, 1 nmol/l [3H] naloxone, CHO-K1 cell membranes expressing human μ-opiate receptor. Put shortly: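 Scintillation proximity readout: [3H]naloxone (1 nmol/l) displacement measured after 90 min, room temperature, on human μ-receptor CHO-K1 membranes in Tris-HCl/azide/BSA buffer; 25 μmol/l naloxone defined non-specific binding. Values are % specific-binding inhibition at 1 μmol/l, or Ki from IC50 (Cheng-Prusoff).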

T2 sequence (P35372 whole entry): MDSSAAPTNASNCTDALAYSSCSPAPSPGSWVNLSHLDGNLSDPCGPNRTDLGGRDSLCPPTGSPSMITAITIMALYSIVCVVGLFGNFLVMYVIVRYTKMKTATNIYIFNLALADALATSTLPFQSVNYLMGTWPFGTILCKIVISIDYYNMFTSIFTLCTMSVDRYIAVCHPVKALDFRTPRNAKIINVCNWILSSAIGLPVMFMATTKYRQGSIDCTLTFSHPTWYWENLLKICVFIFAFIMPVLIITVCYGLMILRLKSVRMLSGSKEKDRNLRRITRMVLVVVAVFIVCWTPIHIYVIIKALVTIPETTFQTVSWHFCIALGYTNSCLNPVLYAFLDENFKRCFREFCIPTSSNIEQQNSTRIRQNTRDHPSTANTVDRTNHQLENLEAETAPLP
T1 sequence (P41146 whole entry): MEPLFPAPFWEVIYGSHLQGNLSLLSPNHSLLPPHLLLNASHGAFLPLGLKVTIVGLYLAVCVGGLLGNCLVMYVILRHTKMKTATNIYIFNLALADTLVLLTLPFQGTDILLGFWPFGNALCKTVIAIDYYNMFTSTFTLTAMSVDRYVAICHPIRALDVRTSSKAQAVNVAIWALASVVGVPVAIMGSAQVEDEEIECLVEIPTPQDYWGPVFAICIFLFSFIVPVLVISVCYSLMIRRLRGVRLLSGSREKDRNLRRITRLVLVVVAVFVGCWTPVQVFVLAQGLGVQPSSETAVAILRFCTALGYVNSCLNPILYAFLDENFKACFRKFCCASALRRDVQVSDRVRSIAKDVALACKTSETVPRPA

Take `CC(C)C(C(=O)N1CCC(c2ccccc2)(N(C)C)CC1)N(C)Cc1ccc2[nH]ccc2c1` (stereo not shown) [Example 146, 2-(((1H-indol-5-yl)methyl)(methyl)amino)-1-(4-(dimethylamino)-4-phenylpiperidin-1-yl)-3-methylbutan-1-one]: the inhibition at 1 µM was 24% in assay [1] and 53% in assay [2].
On the same counts, the results for `CN(C(=O)CCc1c[nH]c2ccccc12)C(C(=O)N1CCC(c2cccs2)(N(C)C)CC1)c1ccccc1` (stereo not shown) [Example 110, N-(2-(4-(dimethylamino)-4-(thiophen-2-yl)piperidin-1-yl)-2-oxo-1-phenylethyl)-3-(1H-indol-3-yl)-N-methylpropanamide] are 60% and 92%.
For `CN(CCN1CCC(c2ccccc2)(N(C)C)CC1)Cc1c[nH]c2ccccc12` [Example 186, 1-(2-(((1H-indol-3-yl)methyl)(methy)amino)ethyl)-N,N-dimethyl-4-phenylpiperidin-4-amine], the “% Inhibition (ORL1) at 1 μM” value in assay [1] turned out to be 88%. Also, in assay [2], the “% Inhibition (μ) at 1 μM” value was 102%.
Turning to `CC(C)C(CC(=O)NCCC(=O)N1CCC(c2ccccc2)(N(C)C)CC1)c1c[nH]c2ccccc12` (stereo not shown) [Example 84, N-(3-(4-(dimethylamino)-4-phenylpiperidin-1-yl)-3-oxopropyl)-3-(1H-indol-3-yl)-4-methylpentanamide], the inhibition at 1 µM in assay [1] turned out to be 95%; in assay [2], 100%.
Taken in the same sequence, the figures for `CN(CCN1CCC(c2ccccc2)(N(C)C)CC1)Cc1ccc2[nH]ccc2c1` [Example 68, 1-(2-(((1H-Indol-5-yl)methyl)(methyl)amino)ethyl)-N,N-dimethyl-4-phenylpiperidin-4-amine] were 65% and 93%.
On the same counts, the results for `CN(C)C1(c2ccccc2)CCN(C(=O)C2CCCN(C(=O)CCc3c[nH]c4ccccc34)C2)CC1` (stereo not shown) [Example 123, 1-(3-(4-(dimethylamino)-4-phenylpiperidine-1-carbonyl)piperidin-1-yl)-3-(1H-indol-3-yl)propan-1-one] are 43% and 72%.
Turning to `CC(C)C(CC(=O)N(C)CCN1CCC(c2ccccc2)(N(C)C)CC1)c1c[nH]c2ccccc12` (stereo not shown) [Example 87, N-(2-(4-(dimethylamino)-4-phenylpiperidin-1-yl)ethyl)-3-(1H-indol-3-yl)-N,4-dimethylpentanamide], the “% Inhibition (ORL1) at 1 μM” value in assay [1] is reported as 93%. Further, the “% Inhibition (μ) at 1 μM” value in assay [2] came out at 102%.
Turning to `CN(C)C1(c2ccccc2)CCN(C(=O)C2CCCN(C(=O)Cc3c[nH]c4ccc(Br)cc34)C2)CC1` (stereo not shown) [Example 115, 2-(5-bromo-1H-indol-3-yl)-1-(3-(4-(dimethylamino)-4-phenylpiperidine-1-carbonyl)piperidin-1-yl)ethanone], the values for the inhibition at 1 µM in assay [1] and in assay [2] were 53% and 72%, respectively.
On the same counts, the results for `COc1ccc2[nH]c(C(=O)NCCC(=O)N3CCC(c4ccccc4)(N(C)C)CC3)cc2c1` [Example 129, N-(3-(4-(dimethylamino)-4-phenylpiperidin-1-yl)-3-oxopropyl)-5-methoxy-1H-indole-2-carboxamide] are 37% and 73%.
Consider `CN(C)C1(c2ccccc2)CCN(C(=O)CCNC(=O)c2cccc3c2ccn3C)CC1` [Example 121, N-(3-(4-(dimethylamino)-4-phenylpiperidin-1-yl)-3-oxopropyl)-1-methyl-1H-indole-4-carboxamide], for which the inhibition at 1 µM is 44% in assay [1] and 88% in assay [2].
Turning to `CN(CCN1CCC(c2ccccc2)(N(C)C)CC1)C(=O)C1CCCc2c1[nH]c1ccc(Cl)cc21` (stereo not shown) [Example 25, 6-Chloro-N-(2-(4-(dimethylamino)-4-phenylpiperidin-1-yl)ethyl)-N-methyl-2,3,4,9-tetrahydro-1H-carbazole-1-carboxamide], the “% Inhibition (ORL1) at 1 μM” value in assay [1] is recorded as 62%. Moreover, in assay [2], the “% Inhibition (μ) at 1 μM” value came to 86%.
With `CC(CC(=O)NC(CC(=O)N1CCC(c2cccs2)(N(C)C)CC1)c1ccccc1)c1c[nH]c2ccccc12` (stereo not shown) [Example 91, N-(3-(4-(dimethylamino)-4-(thiophen-2-yl)piperidin-1-yl)-3-oxo-1-phenylpropyl)-3-(1H-indol-3-yl)butanamide], the results for the inhibition at 1 µM in assay [1] and in assay [2] were 89% and 97%, respectively.
Take `CCCCC1(N(C)C)CCN(CCN(C)C(=O)CC(C)c2c[nH]c3ccccc23)CC1` (stereo not shown) [Example 58, N-(2-(4-Butyl-4-(dimethylamino)piperidin-1-yl)ethyl)-3-(1H-indol-3-yl)-N-methylbutanamide]: the inhibition at 1 µM in assay [1] worked out at 20%; in assay [2] it was 77%.
On the same counts, the results for `CN(CCN1CCC(c2ccccc2)(N2CCCC2)CC1)C(=O)C1CCCc2c1[nH]c1ccc(Cl)cc21` (stereo not shown) [Example 42, 6-Chloro-N-methyl-N-(2-(4-phenyl-4-(pyrrolidin-1-yl)piperidin-1-yl)ethyl)-2,3,4,9-tetrahydro-1H-carbazole-1-carboxamide] are 22% and 28%.
On the same counts, the results for `CN(C)C1(c2cccs2)CCN(C(=O)CNC(=O)c2ccc3ccn(C)c3c2)CC1` [Example 109, N-(2-(4-(dimethylamino)-4-(thiophen-2-yl)piperidin-1-yl)-2-oxoethyl)-1-methyl-1H-indole-6-carboxamide] are 61% and 81%.
As for `CN(C(=O)Cc1c[nH]c2cc(F)ccc12)C(C(=O)N1CCC(c2cccs2)(N(C)C)CC1)c1ccccc1` (stereo not shown) [Example 95, N-(2-(4-(dimethylamino)-4-(thiophen-2-yl)piperidin-1-yl)-2-oxo-1-phenylethyl)-2-(6-fluoro-1H-indol-3-yl)-N-methylacetamide], the inhibition at 1 µM in assay [1] worked out at 82%; in assay [2], 81%.
As to `CN(C)C1(c2ccccc2)CCN(C(=O)CCNC(=O)CCc2cn(C)c3ccccc23)CC1` [Example 117, N-(3-(4-(dimethylamino)-4-phenylpiperidin-1-yl)-3-oxopropyl)-3-(1-methyl-1H-indol-3-yl)propanamide], the inhibition at 1 µM in assay [1] worked out at 48%; in assay [2], 79%.
As to `CN(C)C1(c2cccs2)CCN(C(=O)CNCc2cccc3cc[nH]c23)CC1` [Example 172, 2-((1H-indol-7-yl)methylamino)-1-(4-(dimethylamino)-4-(thiophen-2-yl)piperidin-1-yl)ethanone], the inhibition at 1 µM in assay [1] is 67%; in assay [2] it was 96%.
As for `COc1ccc2[nH]cc(CN(C)CCN3CCC(c4ccccc4)(N(C)C)CC3)c2c1` [Example 191, 1-(2-(((5-methoxy-1H-indol-3-yl)methyl)(methyl)amino)ethyl)-N,N-dimethyl-4-phenylpiperidin-4-amine], the “% Inhibition (ORL1) at 1 μM” value in assay [1] is 80%. For the same molecule, in assay [2], the “% Inhibition (μ) at 1 μM” value amounted to 96%.
Consider `CN(C)C1(c2ccccc2)CCN(C(=O)CCNC(=O)c2ccc3ccn(C)c3c2)CC1` [Example 99, N-(3-(4-(dimethylamino)-4-phenylpiperidin-1-yl)-3-oxopropyl)-1-methyl-1H-indole-6-carboxamide], for which the values for the inhibition at 1 µM in assay [1] and in assay [2] were 71% and 87%, respectively.
In the case of `CN(CCN1CCC(c2ccccc2)(N(C)C)CC1)C(=O)c1ccc2ccn(C)c2c1` [Example 29, N-(2-(4-(Dimethylamino)-4-phenylpiperidin-1-yl)ethyl)-N,1-dimethyl-1H-indole-6-carboxamide], in assay [1], the “% Inhibition (ORL1) at 1 μM” value stood at 51%. The “% Inhibition (μ) at 1 μM” value in assay [2] is given as 94%.
For `CC(C)C(CC(=O)NC(CC(=O)N1CCC(c2cccs2)(N(C)C)CC1)c1ccccc1)c1c[nH]c2ccccc12` (stereo not shown) [Example 85, N-(3-(4-(dimethylamino)-4-(thiophen-2-yl)piperidin-1-yl)-3-oxo-1-phenylpropyl)-3-(1H-indol-3-yl)-4-methylpentanamide], the inhibition at 1 µM in assay [1] is 94%; in assay [2], 101%.
For the molecule `CC(C)C(CC(=O)N(C)CCCN1CCC(c2ccccc2)(N(C)C)CC1)c1c[nH]c2ccccc12` (stereo not shown) [Example 34, N-(3-(4-(Dimethylamino)-4-phenylpiperidin-1-yl)propyl)-3-(1H-indol-3-yl)-N,4-dimethylpentanamide], the inhibition at 1 µM in assay [1] came to 43%; in assay [2], 88%.
For `CC(CC(=O)N(C)CCN1CCC(c2ccccc2)(N(C)C)CC1)c1c[nH]c2ccccc12` (stereo not shown) [Example 20, N-(2-(4-(Dimethylamino)-4-phenylpiperidin-1-yl)ethyl)-3-(1H-indol-3-yl)-N methylbutanamide], the figures for the inhibition at 1 µM in assay [1] and in assay [2] were 68% and 88%, respectively.
Taken in the same sequence, the figures for `CN(C)C1(c2cccs2)CCN(C(=O)CNC(=O)C2CCCc3c2[nH]c2ccc(Cl)cc32)CC1` (stereo not shown) [Example 116, 6-chloro-N-(2-(4-(dimethylamino)-4-(thiophen-2-yl)piperidin-1-yl)-2-oxoethyl)-2,3,4,9-tetrahydro-1H-carbazole-1-carboxamide] were 50% and 83%.
On the same counts, the results for `CN(C)C1(c2cccs2)CCN(CCNCc2c[nH]c3ccccc23)CC1` [Example 179, 1-(2-((1H-indol-3-yl)methylamino)ethyl)-N,N-dimethyl-4-(thiophen-2-yl)piperidin-4-amine] are 97% and 76%.
